target: T1, recombinant human 11 β-HSD1 (Homo sapiens, UniProt P28845); assay: 11 β-HSD1 SPA Assay (Scintillation Proximity Assay); format: biochemical
T1 construct: made in house; host or cells: E. coli
Method in brief: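 Scintillation proximity read-out of cortisol formed from 40 nM [3H]cortisone by purified recombinant human enzyme (30-100 nM, E. coli) with 1 mM NADPH, pH7.4, 2 hours at room temperature; beads with cortisol antibody and glycyrrhetinic acid stop the reaction, read next day. IC50 derived from inhibition normalised to background and maximal wells.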

T1 sequence (P28845 whole entry): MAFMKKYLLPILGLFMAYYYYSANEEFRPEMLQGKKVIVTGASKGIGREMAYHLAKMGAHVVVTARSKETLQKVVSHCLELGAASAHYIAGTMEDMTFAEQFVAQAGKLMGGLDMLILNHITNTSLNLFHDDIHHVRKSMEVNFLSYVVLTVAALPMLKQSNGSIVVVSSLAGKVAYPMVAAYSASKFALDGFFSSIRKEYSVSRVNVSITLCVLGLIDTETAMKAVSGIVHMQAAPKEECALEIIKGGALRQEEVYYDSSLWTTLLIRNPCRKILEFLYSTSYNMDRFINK

| SMILES | IC50 [nM] |
| --- | --- |
| CC(C)(C(=O)N[C@H]1C[C@H]2CC[C@@H](C1)N2c1ccc(C(N)=O)cn1)S(=O)(=O)c1ccc(Cl)cc1Cl [Example 274, 6-[3-endo-({2-[(2,4-dichlorophenyl)sulfonyl]-2-methylpropanoyl}amino)-8-azabicyclo[3.2.1]oct-8-yl]pyridine-3-carboxamide] | < 200 |
| CC(C)(Oc1ccc(F)cc1Cl)C(=O)N[C@H]1C[C@H]2CC[C@@H](C1)N2c1ccc(S(C)(=O)=O)nc1 [Example 275, 2-[(2-chloro-4-fluorophenyl)oxy]-2-methyl-N-{8-[6-(methylsulfonyl)pyridin-3-yl]-8-azabicyclo[3.2.1]oct-3-endo-yl}propanamide] | < 200 |
| CC(C)(Oc1ccc(F)cc1Cl)C(=O)N[C@H]1C[C@H]2CC[C@@H](C1)N2c1ccc(-c2noc(C(F)(F)F)n2)cn1 [Example 276, 2-[(2-chloro-4-fluorophenyl)oxy]-2-methyl-N-(8-{5-[5-(trifluoromethyl)-1,2,4-oxadiazol-3-yl]pyridin-2-yl}-8-azabicyclo[3.2.1]oct-3-endo-yl)propanamide] | < 2000 |
| CC(C)(Oc1ccc(Cl)cc1-c1ccc(F)cc1)C(=O)N[C@H]1C[C@H]2CC[C@@H](C1)N2c1ccc(C(N)=O)cn1 [Example 277, 6-[3-endo-({2-[(5-chloro-4′-fluorobiphenyl-2-yl)oxy]-2-methylpropanoyl}amino)-8-azabicyclo[3.2.1]oct-8-yl]pyridine-3-carboxamide] | < 200 |
| CC(C)(Oc1ccc(Cl)cc1Cl)C(=O)NC1CC2CCC(C1)N2c1ncc(NC(=O)CC(F)(F)F)cc1Cl (stereo not drawn) [Example 278, N-{5-chloro-6-[3-endo-({2-[(2,4-dichlorophenyl)oxy]-2-methylpropanoyl}amino)-8-azabicyclo[3.2.1]oct-8-yl]pyridin-3-yl}-3,3,3-trifluoropropanamide] | < 2000 |
| CC(C)(Oc1ccc(Cl)cc1Cl)C(=O)N[C@H]1C[C@H]2CC[C@@H](C1)N2C(=O)c1ccc(C(N)=O)cc1 [Example 279, 4-{[3-endo-({2-[(2,4-dichlorophenyl)oxy]-2-methylpropanoyl}amino)-8-azabicyclo[3.2.1]oct-8-yl]carbonyl}benzamide] | < 2000 |
| CS(=O)(=O)c1ccc(N2[C@@H]3CC[C@H]2C[C@@H](NC(=O)C2(c4ccc(F)c(C(F)(F)F)c4)CC2)C3)nc1 [Example 280, 1-[4-fluoro-3-(trifluoromethyl)phenyl]-N-{8-[5-(methylsulfonyl)pyridin-2-yl]-8-azabicyclo[3.2.1]oct-3-endo-yl}cyclopropanecarboxamide] | < 2000 |
| CS(=O)(=O)c1ccc(N2[C@@H]3CC[C@H]2C[C@@H](NC(=O)C2(c4ccc(F)c(F)c4)CC2)C3)nc1 [Example 281, 1-(3,4-difluorophenyl)-N-{8-[5-(methylsulfonyl)pyridin-2-yl]-8-azabicyclo[3.2.1]oct-3-endo-yl}cyclopropanecarboxamide] | < 2000 |
| CC(C)(Oc1ccc(-c2ccc(F)cc2)cc1Cl)C(=O)N[C@H]1C[C@H]2CC[C@@H](C1)N2c1ccc(C(N)=O)cn1 [Example 282, 6-[3-endo-({2-[(3-chloro-4′-fluorobiphenyl-4-yl)oxy]-2-methylpropanoyl}amino)-8-azabicyclo[3.2.1]oct-8-yl]pyridine-3-carboxamide] | < 200 |
| CC(C)(Oc1ccc(F)cc1C(F)(F)F)C(=O)N[C@H]1C[C@H]2CC[C@@H](C1)N2c1ccc(NS(C)(=O)=O)cc1 [Example 283, 2-{[4-fluoro-2-(trifluoromethyl)phenyl]oxy}-2-methyl-N-(8-{4-[(methylsulfonyl)amino]phenyl}-8-azabicyclo[3.2.1]oct-3-endo-yl)propanamide] | < 200 |
| CC(C)(Oc1ccc(Cl)cc1C(F)(F)F)C(=O)N[C@H]1C[C@H]2CC[C@@H](C1)N2c1ccc(S(C)(=O)=O)cc1 [Example 284, 2-{[4-chloro-2-(trifluoromethyl)phenyl]oxy}-2-methyl-N-{8-[4-(methylsulfonyl)phenyl]-8-azabicyclo[3.2.1]oct-3-endo-yl}propanamide] | < 200 |
| CC(C)(Oc1ccc(Cl)cc1C1CCCCC1)C(=O)N[C@H]1C[C@H]2CC[C@@H](C1)N2c1ccc(C(N)=O)cn1 [Example 285, 6-[3-endo-({2-[(4-chloro-2-cyclohexylphenyl)oxy]-2-methylpropanoyl}amino)-8-azabicyclo[3.2.1]oct-8-yl]pyridine-3-carboxamide] | < 200 |
| CC(C)(Sc1ccc(Cl)cc1Cl)C(=O)N[C@H]1C[C@H]2CC[C@@H](C1)N2c1ccc(C(N)=O)cn1 [Example 286, 6-[3-endo-({2-[(2,4-dichlorophenyl)thio]-2-methylpropanoyl}amino)-8-azabicyclo[3.2.1]oct-8-yl]pyridine-3-carboxamide] | < 200 |
| CC(C)(Oc1ccc(Cl)cc1Cl)C(=O)N[C@H]1C[C@H]2CC[C@@H](C1)N2c1ccc(C(=O)O)cn1 [Example 287, 6-[3-endo-({2-[(2,4-dichlorophenyl)oxy]-2-methylpropanoyl}amino)-8-azabicyclo[3.2.1]oct-8-yl]pyridine-3-carboxylic acid] | < 200 |
| CC(C)(Oc1ccc(F)cc1C(F)(F)F)C(=O)N[C@H]1C[C@H]2CC[C@@H](C1)N2c1ccc(S(C)(=O)=O)nc1 [Example 288, 2-{[4-fluoro-2-(trifluoromethyl)phenyl]oxy}-2-methyl-N-{8-[6-(methylsulfonyl)pyridin-3-yl]-8-azabicyclo[3.2.1]oct-3-endo-yl}propanamide] | < 2000 |
| CS(=O)(=O)c1cccc(C2(C(=O)N[C@H]3C[C@H]4CC[C@@H](C3)N4c3ccc(C(=O)NCC(F)(F)F)cn3)CC2)c1 [Example 289, 6-{3-endo-[({1-[3-(methylsulfonyl)phenyl]cyclo-propyl}carbonyl)amino]-8-azabicyclo[3.2.1]oct-8-yl}-N-(2,2,2-trifluoroethyl)pyridine-3-carboxamide] | < 2000 |
| CC(C)(Oc1ccc(F)c(Cl)c1Cl)C(=O)N[C@H]1C[C@H]2CC[C@@H](C1)N2c1ccc(NS(C)(=O)=O)cn1 [Example 290, 2-[(2,3-dichloro-4-fluorophenyl)oxy]-2-methyl-N-(8-{5-[(methylsulfonyl)amino]pyridin-2-yl}-8-azabicyclo[3.2.1]oct-3-endo-yl)propanamide] | < 200 |
| CC(C)(Oc1ccc(Cl)cc1Cl)C(=O)N[C@H]1C[C@H]2CC[C@@H](C1)N2Cc1cccc(C(N)=O)c1 [Example 291, 3-{[3-endo-({2-[(2,4-dichlorophenyl)oxy]-2-methylpropanoyl}amino)-8-azabicyclo[3.2.1]oct-8-yl]methyl}benzamide] | < 2000 |
| CC(C)(Oc1ccc(F)cc1C(F)(F)F)C(=O)N[C@H]1C[C@H]2CC[C@@H](C1)N2c1ccc(-c2nnn[nH]2)nc1 [Example 292, 2-{[4-fluoro-2-(trifiuoromethyl)phenyl]oxy}-2-methyl-N-{8-[6-(1H-tetrazol-5-yl)pyridin-3-yl]-8-azabicyclo[3.2.1]oct-3-endo-yl}propanamide] | < 200 |
| CC(C)(Oc1ccc(Cl)cc1S(C)(=O)=O)C(=O)N[C@H]1C[C@H]2CC[C@@H](C1)N2c1ccc(S(N)(=O)=O)cn1 [Example 293, N-{8-[5-(aminosulfonyl)pyridin-2-yl]-8-azabicyclo[3.2.1]oct-3-endo-yl}-2-{[4-chloro-2-(methylsulfonyl)phenyl]oxy}-2-methylpropanamide] | < 2000 |
| CC(C)(Oc1ccc(F)cc1F)C(=O)N[C@H]1C[C@H]2CC[C@@H](C1)N2c1ccc(S(N)(=O)=O)cn1 [Example 294, N-{8-[5-(aminosulfonyl)pyridin-2-yl]-8-azabicyclo[3.2.1]oct-3-endo-yl}-2-[(2,4-difluorophenyl)oxy]-2-methylpropanamide] | < 200 |
| CC(C)(Oc1ccc(Cl)cc1Cl)C(=O)N[C@H]1C[C@H]2CC[C@@H](C1)N2Cc1ccc(C(N)=O)cc1 [Example 295, 4-{[3-endo-({2-[(2,4-dichlorophenyl)oxy]-2-methylpropanoyl}amino)-8-azabicyclo[3.2.1]oct-8-yl]methyl}benzamide] | < 2000 |
| CC(C)(Oc1ccc(F)cc1S(C)(=O)=O)C(=O)N[C@H]1C[C@H]2CC[C@@H](C1)N2c1ccc(C(=O)NCC(F)(F)F)cn1 [Example 296, 6-{3-endo-[(2-{[4-fluoro-2-(methylsulfonyl)phenyl]oxy}-2-methylpropanoyl)amino]-8-azabicyclo[3.2.1]oct-8-yl}-N-(2,2,2-trifluoroethyl)pyridine-3-carboxamide] | < 200 |
| CC(C)(Oc1ccc(Cl)c2ccccc12)C(=O)N[C@H]1C[C@H]2CC[C@@H](C1)N2c1ccc(C(N)=O)cn1 [Example 297, 6-[3-endo-({2-[(4-chloronaphthalen-1-yl)oxy]-2-methylpropanoyl}amino)-8-azabicyclo[3.2.1]oct-8-yl]pyridine-3-carboxamide] | < 200 |
| CC(C)(Oc1ccc(F)cc1S(C)(=O)=O)C(=O)N[C@H]1C[C@H]2CC[C@@H](C1)N2c1ccc(S(N)(=O)=O)cn1 [Example 298, N-{8-[5-(aminosulfonyl)pyridin-2-yl]-8-azabicyclo[3.2.1]oct-3-endo-yl}-2-{[4-fluoro-2-(methylsulfonyl)phenyl]oxy}-2-methylpropanamide] | < 2000 |
| CC(C)(Oc1ccc(Cl)cc1C(F)(F)F)C(=O)N[C@H]1C[C@H]2CC[C@@H](C1)N2c1ccc(S(C)(=O)=O)nc1 [Example 299, 2-{[4-chloro-2-(trifluoromethyl)phenyl]oxy}-2-methyl-N-{8-[6-(methylsulfonyl)pyridin-3-yl]-8-azabicyclo[3.2.1]oct-3-endo-yl}propanamide] | < 200 |
| CC(C)(Oc1ccccc1S(C)(=O)=O)C(=O)N[C@H]1C[C@H]2CC[C@@H](C1)N2c1ccc(C(=O)NCC(F)(F)F)cn1 [Example 300, 6-{3-endo-[(2-methyl-2-{[2-(methylsulfonyl)phenyl]oxy}-propanoyl)amino]-8-azabicyclo[3.2.1]oct-8-yl}-N-(2,2,2-trifluoroethyl)pyridine-3-carboxamide] | < 2000 |

Source: patent US8163771B2, “11 β-HSD1 modulators” (Exelixis, Inc., priority 2008, dated 2012)
